Publication PMC12473906, “Comparing the Altis RepliGut Organoid System to MDCK Monolayers in Predicting the Oral Absorption of Lenalidomide” (Pharmaceutics, 2025)
“Also recorded” adds a separate entry of the source.

Legend:
P-gp (MDR1) = molecular target: T1, P-gp (MDR1) (Homo sapiens, UniProt P08183); assay: Bidirectional permeability in gMDCK cells overexpressing human P-gp (gMDCK-MDR1); type: in vitro ADME; conditions: human, MDCK-MDR1, pH 7.4; gMDCK-MDR1
T1 construct: expressed in transfected cells; host or cells: gMDCK (P-gp-knockout Madin-Darby Canine Kidney cells), puromycin selection
T1 sequence (P08183 whole entry): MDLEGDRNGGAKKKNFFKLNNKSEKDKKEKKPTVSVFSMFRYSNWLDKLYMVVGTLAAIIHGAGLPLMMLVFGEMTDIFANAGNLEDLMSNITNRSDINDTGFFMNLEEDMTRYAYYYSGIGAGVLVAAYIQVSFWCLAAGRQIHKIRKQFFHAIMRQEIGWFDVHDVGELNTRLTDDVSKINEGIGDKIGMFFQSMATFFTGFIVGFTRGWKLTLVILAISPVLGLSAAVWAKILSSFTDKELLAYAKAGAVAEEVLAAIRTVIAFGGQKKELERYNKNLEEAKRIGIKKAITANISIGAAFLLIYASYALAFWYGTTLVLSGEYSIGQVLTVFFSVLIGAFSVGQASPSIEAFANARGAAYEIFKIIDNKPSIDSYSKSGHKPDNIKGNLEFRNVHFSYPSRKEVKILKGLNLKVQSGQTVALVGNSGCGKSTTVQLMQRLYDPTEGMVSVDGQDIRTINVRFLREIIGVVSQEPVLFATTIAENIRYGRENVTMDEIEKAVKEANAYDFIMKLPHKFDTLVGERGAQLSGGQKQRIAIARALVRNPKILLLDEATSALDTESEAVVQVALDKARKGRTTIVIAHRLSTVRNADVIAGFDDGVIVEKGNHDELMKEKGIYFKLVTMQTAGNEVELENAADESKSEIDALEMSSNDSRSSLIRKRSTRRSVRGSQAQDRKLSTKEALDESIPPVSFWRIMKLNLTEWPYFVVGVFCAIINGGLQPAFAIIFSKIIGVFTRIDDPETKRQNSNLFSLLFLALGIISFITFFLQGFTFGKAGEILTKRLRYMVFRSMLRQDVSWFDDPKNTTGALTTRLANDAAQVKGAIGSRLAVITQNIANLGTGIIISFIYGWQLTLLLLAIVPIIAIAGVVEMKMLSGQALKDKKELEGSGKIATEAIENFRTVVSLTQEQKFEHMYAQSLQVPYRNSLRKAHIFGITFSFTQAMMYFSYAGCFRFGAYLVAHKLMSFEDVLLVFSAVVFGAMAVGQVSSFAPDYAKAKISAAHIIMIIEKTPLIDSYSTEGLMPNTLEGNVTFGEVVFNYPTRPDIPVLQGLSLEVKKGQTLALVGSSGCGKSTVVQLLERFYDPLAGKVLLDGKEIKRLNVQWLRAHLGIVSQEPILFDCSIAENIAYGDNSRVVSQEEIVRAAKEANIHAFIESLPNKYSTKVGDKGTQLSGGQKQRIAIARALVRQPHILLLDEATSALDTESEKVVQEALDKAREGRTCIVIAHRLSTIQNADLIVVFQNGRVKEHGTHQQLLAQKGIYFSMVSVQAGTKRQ
Procedure: (§1) gMDCK cells were maintained in Dulbecco’s Modified Eagle’s Medium (DMEM) supplemented with Gibco’s MEM amino acids solution (1 X), penicillin (100 units/mL), streptomycin ([…]), and 10% fetal bovine serum and in a humidified, 37 °C, 5% CO2 environment as previously described. Efflux transporter-expressing gMDCK cells, gMDCK-P-gp and gMDCK-BCRP, were cultured in the above-mentioned medium with addition of puromycin (2 µg/mL). All cells were passaged at approximately 80% confluency in T-175 flasks. For permeability assays, gMDCK, gMDCK-P-gp, and gMDCK-BCRP cells were seeded on 96 transwell plates (approximately 40,000 cells/well) and allowed to grow for 48 h in a 37 °C, 5% CO2 environment. Digitonin (10–40 mg/L) was included in some experiments to loosen tight junctions to explore paracellular permeability. TEER values were measured on the day of the experiment using an EVOM^TM Auto (World Precision Instruments, Sarasota, FL, USA).
(§2) Lenalidomide dosing solutions (1–500 µM) were diluted from DMSO stock (500 mM) with HEPES-buffered HBSS (with Ca^2+ and Mg^2+, 10 mM HEPES, pH 7.4) + 20 µM Lucifer yellow resulting in a final DMSO content of 0.2%. Lucifer yellow was measured fluorometrically (Ex/Em 428/532 nm) to assess tight junctions/paracellular transport. Permeability of lenalidomide was assessed bidirectionally in both in vitro models over three hours, and cell monolayers were collected at the end of the experiment.
(§3) Briefly, for assessing apical to basolateral (A to B) permeability, 150 uL of lenalidomide dosing solutions was added to apical side of the transwell, and 250 uL of HEPES-buffered HBSS without Lucifer yellow was added to basolateral side. For evaluating basolateral to apical (B to A) permeability, 250 uL of dosing solutions was added to the basolateral side, and 150 uL of HEPES-buffered HBSS without Lucifer yellow was added to the apical side. An amount of 10 µL was sampled from the dosing side of the transwell at the beginning and the end of the experiment. An amount of 25 µL was sampled from the receiver side at 1, 2, and 3 h.
(§4) Apparent permeability (Papp) was calculated according to the following equation: Papp = (dQ/dt)/(A * C), where dQ/dt is the amount of drug that crosses the membrane per unit of time, A is the surface area of the membrane through which the drug is permeating (0.143 cm^2), and C is the initial concentration added to cells. The efflux ratio was calculated according to the following equation:(4) Efflux ratio= Papp basolateral to apical/Papp apical to basolateral

human P-gp = molecular target: T2, human P-gp (Homo sapiens, UniProt P08183); assay: as above; type: in vitro ADME; conditions: gMDCK P-gp overexpressing cells and organoids
T2 construct: expressed in transfected cells; host or cells: gMDCK (P-gp-knockout Madin-Darby Canine Kidney cells), puromycin selection
T2 sequence (P08183 whole entry): as above
Procedure: as §1, §2, §3, §4

BCRP = molecular target: T3, BCRP (Homo sapiens, UniProt Q9UNQ0); assay: Bidirectional permeability in gMDCK cells overexpressing human BCRP (gMDCK-BCRP); type: in vitro ADME
T3 construct: expressed in transfected cells; host or cells: gMDCK (P-gp-knockout Madin-Darby Canine Kidney cells), puromycin selection
T3 sequence (Q9UNQ0 1-655): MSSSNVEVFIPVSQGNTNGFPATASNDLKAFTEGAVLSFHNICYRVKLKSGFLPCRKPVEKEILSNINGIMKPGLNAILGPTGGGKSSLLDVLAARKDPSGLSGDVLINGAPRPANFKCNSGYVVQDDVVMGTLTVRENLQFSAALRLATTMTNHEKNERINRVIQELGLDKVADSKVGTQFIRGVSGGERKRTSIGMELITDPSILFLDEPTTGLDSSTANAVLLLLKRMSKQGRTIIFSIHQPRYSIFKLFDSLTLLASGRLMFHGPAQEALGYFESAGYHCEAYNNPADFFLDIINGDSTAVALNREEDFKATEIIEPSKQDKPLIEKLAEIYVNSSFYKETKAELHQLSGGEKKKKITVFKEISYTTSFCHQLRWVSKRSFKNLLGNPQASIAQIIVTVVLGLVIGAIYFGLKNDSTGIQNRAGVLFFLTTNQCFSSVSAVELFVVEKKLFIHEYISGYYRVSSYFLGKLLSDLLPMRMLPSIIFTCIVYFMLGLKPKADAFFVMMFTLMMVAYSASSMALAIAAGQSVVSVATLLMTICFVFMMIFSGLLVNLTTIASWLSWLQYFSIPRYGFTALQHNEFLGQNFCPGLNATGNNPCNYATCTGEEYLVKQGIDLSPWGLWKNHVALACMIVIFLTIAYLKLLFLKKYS
Procedure: as §1, §2, §3, §4

[1] = cited from earlier work
[2] = gMDCK (P-gp knockout MDCK) monolayer permeability assay; conditions: dog, MDCK
[3] = RepliGut human jejunal organoid-derived monolayer permeability assay; conditions: human
[4] = test system: human intestinal organoid-derived monolayer (RepliGut); assay: as above
[5] = Lenalidomide Permeability in gMDCK Cells, FaSSIF
[6] = Lenalidomide Permeability in gMDCK Cells, FeSSIF
[7] = pH 7.4, Lenalidomide Permeability in gMDCK Cells, 4% BSA in receiver compartment
[8] = pH 7.4, Lenalidomide Permeability in gMDCK Cells, shaking (1000 rpm)
[9] = pH 7.4, Lenalidomide Permeability in gMDCK Cells, typical assay conditions
[10] = pH 7.4, with elacridar + Ko143 (concentrations not given)

Papp A→B at 3 h (P-gp (MDR1)): 2 nm/s | Papp B→A at 3 h (P-gp (MDR1)): 28 nm/s | efflux ratio at 3 h (P-gp (MDR1)): 14 | Papp A→B at 3 h (BCRP; human, pH 7.4, gMDCK-BCRP): 1.5 nm/s | Papp B→A at 3 h (BCRP; human, pH 7.4, gMDCK-BCRP): 24 nm/s | efflux ratio at 3 h (BCRP; human, pH 7.4, gMDCK-BCRP): 16 | Papp at 3 h, 10 µM [2, 5]: 2.7 nm/s | Papp at 3 h, 50 µM [2, 5]: 2.8 nm/s | Papp at 3 h, 250 µM [2, 5]: 1.7 nm/s | Papp at 3 h, 500 µM ([2]; Lenalidomide Permeability in gMDCK Cells, FaSSIF, 500 uM): 1.3 nm/s | Papp at 3 h, 10 µM [2, 6]: 0.7 nm/s | Papp at 3 h, 50 µM [2, 6]: 1.4 nm/s | Papp at 3 h, 250 µM [2, 6]: 1 nm/s | Papp at 3 h, 500 µM ([2]; Lenalidomide Permeability in gMDCK Cells, FeSSIF, 500 uM): 1.4 nm/s | Papp A→B at 3 h ([2]; pH 7.4): 2.1 nm/s | Papp B→A at 3 h ([2]; pH 7.4): 1.3 nm/s | efflux ratio at 3 h ([2]; pH 7.4): 0.62 | Papp at 3 h, 10 µM [2, 7]: 1.2 nm/s | Papp at 3 h, 50 µM [2, 7]: 1.6 nm/s | Papp at 3 h, 250 µM [2, 7]: 1.5 nm/s | Papp at 3 h, 500 µM ([2]; pH 7.4, Lenalidomide Permeability in gMDCK Cells, 4% BSA in receiver compartment, 500 uM): 1.5 nm/s | Papp at 3 h, 10 µM [2, 8]: 0.3 nm/s | Papp at 3 h, 50 µM [2, 8]: 0.3 nm/s | Papp at 3 h, 250 µM [2, 8]: 1.4 nm/s | Papp at 3 h, 500 µM ([2]; pH 7.4, Lenalidomide Permeability in gMDCK Cells, shaking (1000 rpm), 500 uM): 2.1 nm/s | Papp at 3 h, 10 µM [2, 9]: 1.9 nm/s | Papp at 3 h, 50 µM [2, 9]: 2.2 nm/s | Papp at 3 h, 250 µM [2, 9]: 2.4 nm/s | Papp at 3 h, 500 µM ([2]; pH 7.4, Lenalidomide Permeability in gMDCK Cells, typical assay conditions, 500 uM): 2.4 nm/s | Papp at 3 h ([2]; pH 7.4, apparent permeability (Papp), gMDCK cell monolayers, independent of concentration): ~2 nm/s | Papp at 3 h, 500 µM ([2]; pH 7.4, gMDCK Papp, lenalidomide 500 µM, apical to basolateral, n=3 biological replicates): 2.1 nm/s | Papp A→B at 3 h ([3]; pH 7.4): 5.8 nm/s | Papp B→A at 3 h ([3]; pH 7.4): 26.4 nm/s | Papp at 3 h ([3]; pH 7.4): ~6 nm/s | Papp at 3 h, 500 µM ([3]; pH 7.4): 5.8 nm/s | efflux ratio at 3 h ([3]; pH 7.4, Efflux Ratio, human jejunal organoids, Papp B to A/Papp A to B): 4.6 | efflux ratio at 3 h ([3]; pH 7.4, efflux ratio, intestinal organoids, all concentrations): 3 to 4 | efflux ratio at 3 h ([3]; pH 7.4, with elacridar 5 µM + Ko143 1 µM, Efflux Ratio, human jejunal organoids + elacridar (5 μM) + Ko143 (1 μM)): ~1 | Papp A→B at 3 h [3, 10]: 5.2 nm/s | Papp B→A at 3 h [3, 10]: 8 nm/s | Efflux Substrate ([4]; Yes/No): Yes | intracellular concentrations in intestinal organoids with and without elacridar ([4]; apical dosing): similar | accumulation in cells, gMDCK vs organoids ([4]; basolateral dosing): greater in gMDCK cells than organoids | intracellular accumulation in organoids, lower than gMDCK ([4]; basolateral to apical direction): approximately 10 fold | accumulation in the cellular compartment, organoid vs gMDCK monolayers ([4]; dosed apically): no significant difference | apical to basolateral apparent permeability in intestinal organoids compared with gMDCK monolayers ([4]; organoid vs gMDCK): significantly higher | basolateral to apical permeability in intestinal organoids compared with gMDCK cells ([4]; organoid vs gMDCK): significantly higher
SMILES: Nc1cccc2c1CN(C1CCC(=O)NC1=O)C2=O (stereo not shown) [Lenalidomide]
P-gp substrate (human P-gp): substrate for both transporters; also recorded: substrate of both P-gp and BCRP | BCRP substrate (BCRP; gMDCK BCRP overexpressing cells and organoids): substrate for both transporters; also recorded: substrate of both P-gp and BCRP | LogP (o/w) ([1]; Figure 1, ref PubChem): < 1 | pKa ([1]; lower pKa): 2.3 | LogP ([1]; ref PubChem): −0.40
